Reference: PubChem BioAssay AID256 (DTP/NCI, 2004)
Several values for one entry are separate records, joined by “and”; a condition that tells them apart may be missing. Equal entries are not always repeated. Toxic doses and inconclusive results are not listed. How the source made its calls: active means survival T/C of 150% or more; inactive means T/C below 125% in these data.

Test system: CD2F1 mice, L1210 leukemia ip, survival T/C
Experiment: NCI In Vivo Anticancer Drug Screen. Data for tumor model L1210 Leukemia (intraperitoneal) in CD2F1 (CDF1) mice
Settings: higher = longer survival
Outline: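 Mice carrying a transplanted tumor received test compound or vehicle alone. The value is the measurement in the treated group divided by that in the vehicle-treated control group.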

[1] = endpoint: mean survival time, dose: 25.0 mg/kg/injection, schedule: Q01DX009 (ip), vehicle: saline with Tween-80
[2] = endpoint: mean survival time, dose: 50.0 mg/kg/injection, schedule: Q01DX009 (ip), vehicle: saline with Tween-80
[3] = endpoint: mean survival time, dose: 200.0 mg/kg/injection, schedule: Q01DX009 (ip), vehicle: saline with Tween-80
[4] = endpoint: mean survival time, dose: 100.0 mg/kg/injection, schedule: Q01DX009 (ip), vehicle: saline with Tween-80
[5] = endpoint: mean survival time, dose: 100.0 mg/kg/injection, schedule: Q04DX003 (ip), vehicle: saline with Tween-80
[6] = endpoint: mean survival time, dose: 200.0 mg/kg/injection, schedule: Q04DX003 (ip), vehicle: saline with Tween-80
[7] = endpoint: mean survival time, dose: 400.0 mg/kg/injection, schedule: Q04DX003 (ip), vehicle: saline with Tween-80
[8] = endpoint: mean survival time, dose: 400.0 mg/kg/injection, schedule: Q01DX009 (ip), vehicle: saline with Tween-80

Measured: T/C

CC1C([N+]2(C)CCCCC2)CS1(=O)=O (configuration not stated)
inactive: endpoint: mean survival time, dose: 100.0 mg/kg/injection, schedule: Q04DX002 (ip), vehicle: saline 103 % of control | endpoint: mean survival time, dose: 200.0 mg/kg/injection, schedule: Q04DX002 (ip), vehicle: saline 100 % of control | endpoint: mean survival time, dose: 400.0 mg/kg/injection, schedule: Q04DX002 (ip), vehicle: saline 95 % of control

COc1cc(OC)c(NC(=O)NCc2ccco2)cc1Cl
inactive: endpoint: mean survival time, dose: 12.5 mg/kg/injection, schedule: Q01DX009 (ip), vehicle: saline with Tween-80 103 % of control | [1] 95 % of control | [2] 88 % of control and 98 % of control | [3] 92 % of control

COC(=O)C(C(=O)OC)C(Br)(C(=O)OC)C(=O)OC
inactive: [4] 98 % of control | [5] 91 % of control | [3] 103 % of control | [6] 91 % of control | [7] 95 % of control

CCCCN1CCN(CCCC)C1CCC
inactive: [1] 98 % of control | [2] 102 % of control | [4] 96 % of control

[Br][Pt+2][Br].[NH-]C(c1ccccc1)C([NH-])c1ccccc1 (configuration not stated)
inactive: endpoint: mean survival time, dose: 12.5 mg/kg/injection, schedule: Q04DX003 (ip), vehicle: saline with Tween-80 109 % of control and 119 % of control | endpoint: mean survival time, dose: 25.0 mg/kg/injection, schedule: Q04DX003 (ip), vehicle: saline with Tween-80 107 % of control and 109 % of control | endpoint: mean survival time, dose: 50.0 mg/kg/injection, schedule: Q04DX003 (ip), vehicle: saline with Tween-80 109 % of control

COc1cc(C(=O)c2cc3c(cc2C)OCO3)cc(OC)c1OC
inactive: endpoint: mean survival time, dose: 6.25 mg/kg/injection, schedule: Q01DX009 (ip), vehicle: Klucel (hydroxypropylcellulose) (HPC) 102 % of control and 105 % of control | endpoint: mean survival time, dose: 12.5 mg/kg/injection, schedule: Q01DX009 (ip), vehicle: Klucel (hydroxypropylcellulose) (HPC) 100 % of control and 102 % of control | endpoint: mean survival time, dose: 25.0 mg/kg/injection, schedule: Q01DX009 (ip), vehicle: Klucel (hydroxypropylcellulose) (HPC) 105 % of control and 107 % of control | endpoint: mean survival time, dose: 50.0 mg/kg/injection, schedule: Q01DX009 (ip), vehicle: Klucel (hydroxypropylcellulose) (HPC) 113 % of control and 98 % of control | endpoint: mean survival time, dose: 100.0 mg/kg/injection, schedule: Q01DX009 (ip), vehicle: Klucel (hydroxypropylcellulose) (HPC) 105 % of control | endpoint: mean survival time, dose: 200.0 mg/kg/injection, schedule: Q01DX009 (ip), vehicle: Klucel (hydroxypropylcellulose) (HPC) 114 % of control

C/C=C\C=C\C(=O)O
inactive: [4] 100 % of control | [3] 97 % of control | [8] 100 % of control

CCOC(=O)C(CCC#N)(CCC#N)C(=O)OCC
inactive: [4] 91 % of control | [5] 96 % of control | [3] 94 % of control | [6] 102 % of control | [8] 94 % of control | [7] 104 % of control

NC1CCC(Br)C2CCCCC12 (configuration not stated)
inactive: endpoint: mean survival time, dose: 5.0 mg/kg/injection, schedule: Q01DX001 (ip), vehicle: saline with Tween-80 103 % of control | endpoint: mean survival time, dose: 10.0 mg/kg/injection, schedule: Q01DX001 (ip), vehicle: saline with Tween-80 103 % of control | endpoint: mean survival time, dose: 20.0 mg/kg/injection, schedule: Q01DX001 (ip), vehicle: saline with Tween-80 104 % of control

CCOC(=O)/C(C#N)=N/Nc1cccc(Cl)c1Cl
inactive: endpoint: mean survival time, dose: 100.0 mg/kg/injection, schedule: Q04DX002 (ip), vehicle: saline with Tween-80 96 % of control | endpoint: mean survival time, dose: 200.0 mg/kg/injection, schedule: Q04DX002 (ip), vehicle: saline with Tween-80 96 % of control | endpoint: mean survival time, dose: 400.0 mg/kg/injection, schedule: Q04DX002 (ip), vehicle: saline with Tween-80 100 % of control

C#CC[N+](C)(C)CCNC(=O)CCCCCCCCCCCCCCC
inactive: endpoint: mean survival time, dose: 75.0 mg/kg/injection, schedule: Q01DX001 (ip), vehicle: saline 102 % of control

Cc1ccc(S(=O)(=O)OCCCCCCCCCCOS(=O)(=O)c2ccc(C)cc2)cc1
inactive: [4] 91 % of control | [5] 91 % of control | [3] 92 % of control | [6] 97 % of control | [8] 91 % of control | [7] 94 % of control

Cc1cc(=O)[nH]c2ccccc12
inactive: [2] 96 % of control | endpoint: mean survival time, dose: 100.0 mg/kg/injection, schedule: Q01DX001 (ip), vehicle: saline 98 % of control | [4] 96 % of control | endpoint: mean survival time, dose: 200.0 mg/kg/injection, schedule: Q01DX001 (ip), vehicle: saline 98 % of control | [3] 103 % of control | endpoint: mean survival time, dose: 400.0 mg/kg/injection, schedule: Q01DX001 (ip), vehicle: saline 102 % of control

Oc1ccc(CCl)c2cccnc12
inactive: endpoint: median survival time, dose: 12.5 mg/kg/injection, schedule: Q01DX009 (ip), vehicle: saline 102 % of control | endpoint: median survival time, dose: 25.0 mg/kg/injection, schedule: Q01DX009 (ip), vehicle: saline 102 % of control | endpoint: median survival time, dose: 50.0 mg/kg/injection, schedule: Q01DX009 (ip), vehicle: saline 102 % of control | endpoint: median survival time, dose: 100.0 mg/kg/injection, schedule: Q01DX009 (ip), vehicle: saline 95 % of control

O=C1OC(c2ccccc2)(c2ccccc2)Cc2ccccc21
inactive: [4] 98 % of control | [3] 102 % of control | [8] 102 % of control

OC1CCCCC12CC2 (configuration not stated)
inactive: [5] 102 % of control | [6] 104 % of control | [7] 113 % of control

CCOC(=O)Nc1ccccc1[N+](=O)[O-]
inactive: endpoint: mean survival time, dose: 100.0 mg/kg/injection, schedule: Q04DX003 (ip), vehicle: other 98 % of control | endpoint: mean survival time, dose: 200.0 mg/kg/injection, schedule: Q04DX003 (ip), vehicle: other 102 % of control | endpoint: mean survival time, dose: 400.0 mg/kg/injection, schedule: Q04DX003 (ip), vehicle: other 98 % of control

CC1CC(O)C(=O)C(O[C@@H]2C[C@@H]3CC[C@@H]4[C@H](CC[C@]5(C)C(C6=CC(=O)OC6)CC[C@]45O)[C@@]3(C=O)C[C@H]2O)O1 (some centres not stated)
inactive: endpoint: mean survival time, dose: 6.25 mg/kg/injection, schedule: Q01DX001 (ip), vehicle: saline with Tween-80 104 % of control | endpoint: mean survival time, dose: 12.5 mg/kg/injection, schedule: Q01DX001 (ip), vehicle: saline with Tween-80 104 % of control
